Measured values published in patent publication US20140045873A1, “NOVEL MICROBIOCIDES” (SYNGENTA PARTICIPATIONS AG, priority 2010, published 2014).
Like-named read-outs stand apart in the source and are kept apart here.

Legend:
[1] = tested on: Botryotinia fuckeliana (Botrytis cinerea); assay: Botryotinia fuckeliana (Botrytis cinerea) / liquid culture (gray mould); format: cell-based; settings: Vogels broth, 24° C., 3-4 days after application, read-out: control of Botryotinia fuckeliana (inhibition of growth, photometric)
Source text: Botryotinia Fuckeliana (Botrytis cinerea)/Liquid Culture (Gray Mould): Conidia of the fungus from cryogenic storage were directly mixed into nutrient broth (Vogels broth). […].45

[2] = tested on: Glomerella lagenarium (Colletotrichum lagenarium); assay: Glomerella lagenarium (Colletotrichum lagenarium) / liquid culture (anthracnose); format: cell-based; settings: Colletotrichum orbiculare; 200 ppm, liquid culture, PDB, 24° C., 3-4 days after application; read-out: control of Glomerella lagenarium (inhibition of growth, photometric)
[3] = tested on: Mycosphaerella arachidis (Cercospora arachidicola); assay: Mycosphaerella arachidis (Cercospora arachidicola) / liquid culture (early leaf spot); format: cell-based; settings: 200 ppm, liquid culture, PDB, 24° C., 4-5 days after application, read-out: control of Mycosphaerella arachidis (inhibition of growth, photometric)
[4] = tested on: Mycosphaerella graminicola (Septoria tritici); assay: Mycosphaerella graminicola (Septoria tritici) / liquid culture (Septoria blotch); format: cell-based; settings: Zymoseptoria tritici; 200 ppm, liquid culture, PDB, 24° C., 4-5 days after application; read-out: control of Mycosphaerella graminicola (inhibition of growth, photometric)
[5] = tested on: Gaeumannomyces graminis; assay: Gaeumannomyces graminis / liquid culture (take-all of cereals); format: cell-based; settings: 200 ppm, liquid culture, PDB, 24° C., 4-5 days after application, read-out: control of Gaeumannomyces graminis (inhibition of growth, photometric)
[6] = tested on: Monographella nivalis (Microdochium nivale); assay: Monographella nivalis (Microdochium nivale) / liquid culture (foot rot cereals); format: cell-based; settings: PDB, 24° C., 4-5 days after application, read-out: control of Monographella nivalis (inhibition of growth, photometric)
[7] = tested on: Pyrenophora teres; settings: in Hordeum vulgare, foliar, read-out: control of Pyrenophora teres (disease control compared to untreated)
[8] = tested on: Puccinia recondita f. sp. tritici; settings: in Triticum aestivum, foliar, read-out: control of Puccinia recondita f. sp. tritici (percent disease control compared to untreated)
[9] = tested on: Puccinia recondita f. sp. tritici; settings: in Triticum aestivum, foliar, read-out: control of Puccinia recondita f. sp. tritici (percent disease control compared to untreated); remark: listed apart in the source
[10] = tested on: Thanatephorus cucumeris (Rhizoctonia solani); settings: read-out: control of Thanatephorus cucumeris (inhibition of growth, photometric)
[11] = tested on: Phaeosphaeria nodorum (Septoria nodorum); settings: Parastagonospora nodorum, in Triticum aestivum, foliar, read-out: control of Phaeosphaeria nodorum (percent disease control compared to untreated)
[12] = tested on: Pythium ultimum; assay: Pythium ultimum / liquid culture (seedling damping off); format: cell-based; settings: Globisporangium ultimum, potato dextrose broth, 24° C., 2-3 days after application, read-out: control of Pythium ultimum (inhibition of growth, photometric)
[13] = tested on: Alternaria solani; assay: Alternaria solani / tomato / leaf disc (early blight); format: in vivo; settings: foliar, tomato leaf disks cv. Baby, inoculated 2 days after application, assessed 5-7 days after application, read-out: control of Alternaria solani (percent disease control compared to untreated)
Description: The inoculated leaf disks were incubated at 23° C./21° C. […].44

Compound	inhibition at 200 ppm [1] [%]	inhibition at 200 ppm [2] [%]	inhibition at 200 ppm [3] [%]	inhibition at 200 ppm [4] [%]	inhibition at 200 ppm [5] [%]	inhibition at 200 ppm [6] [%]	melting point [°C]	pest or weed control at 200 ppm [7] [%]	pest or weed control at 200 ppm [8] [%]	pest or weed control at 200 ppm [9] [%]	inhibition at 200 ppm [10] [%]	pest or weed control at 200 ppm [11] [%]	inhibition at 200 ppm [12] [%]	pest or weed control at 200 ppm [13] [%]
COc1cc(C)nc(-c2cccc(CCCO/N=C(\C)c3cccc(C)n3)n2)c1 [P.11, 1-(6-methyl-pyridin-2-yl)-ethanone-O-[3-(4′-methoxy-6′-methyl-[2,2]bipyridinyl-6-yl)-propyl]-oxime]	≥ 80	≥ 80	≥ 80	≥ 80	≥ 80	≥ 80	84 to 86	≥ 80	≥ 80	≥ 80	≥ 80	≥ 80	–	–
C/C(=N\OCCCc1cccc(-c2cc(Cl)cc(C)n2)n1)c1cccc(C)n1 [P.16, 1-(6-methyl-pyridin-2-yl)-ethanone-O-[3-(4′-chloro-6′-methyl-[2,2′]bipyridinyl-6-yl)-propyl]-oxime]	≥ 80	≥ 80	≥ 80	≥ 80	≥ 80	–	53 to 54	≥ 80	≥ 80	≥ 80	≥ 80	≥ 80	–	–
CSc1cc(C)nc(-c2cccc(CCCO/N=C(\C)c3cccc(C)n3)n2)c1 [P.17]	–	≥ 80	≥ 80	≥ 80	≥ 80	≥ 80	76 to 77	≥ 80	≥ 80	≥ 80	≥ 80	≥ 80	≥ 80	–
CCc1cc(O)c(C)c(-c2cccc(CCCO/N=C(\C)c3cccc(C)n3)n2)n1 [P.32]	–	–	–	–	–	–	128 to 130	–	–	–	–	–	–	–
COc1cc(C)nc(-c2cccc(CCCO/N=C(\C)c3nc(C)cc(C)n3)n2)c1 [P.44]	≥ 80	≥ 80	≥ 80	≥ 80	≥ 80	≥ 80	–	≥ 80	≥ 80	≥ 80	≥ 80	≥ 80	≥ 80	≥ 80
